Patent publication US20240409585A1, “MACROCYCLIC IMMUNOMODULATORS” (priority 2021, published 2024)
Numbered stars: 1 amine (or outer) side, 2 acyl side, 3 side chain; on linkers, the order of the positions; unused ones are H or OH. Bridge positions count the residues as written; N and C are the ends. Square brackets hold non-standard residues; d marks the D form. Peptide text beside a SMILES is read from it. * marks the point of attachment. Bip(4'-COOH) = N[C@@H](Cc1ccc(-c2ccc(C(=O)O)cc2)cc1)C(=O)O; Bip(4'-NHAc) = CC(=O)Nc1ccc(-c2ccc(C[C@H](N)C(=O)O)cc2)cc1; Phe(3,4,5-F3) = N[C@@H](Cc1cc(F)c(F)c(F)c1)C(=O)O; X32 = N=C(N)NCc1ccc(C[C@H](N[*:1])C(=O)[*:2])cc1; Phe(3-CF3) = N[C@@H](Cc1cccc(C(F)(F)F)c1)C(=O)O; Ala(morpholin-4-yl) = N[C@@H](CN1CCOCC1)C(=O)O; Phe(4-CONH2) = NC(=O)c1ccc(C[C@H](N)C(=O)O)cc1; Phe(4-COOH) = N[C@@H](Cc1ccc(C(=O)O)cc1)C(=O)O; Phe(3,4-F2) = N[C@@H](Cc1ccc(F)c(F)c1)C(=O)O; Bip = N[C@@H](Cc1ccc(-c2ccccc2)cc1)C(=O)O; Phe(3-Me) = Cc1cccc(C[C@H](N)C(=O)O)c1; Abu(3S-NH2) = C[C@H](N)[C@H](N)C(=O)O; Propanoyl(3,3,3-F3) = O=C(CC(F)(F)F)*; Val(3-OH) = CC(C)(O)[C@H](N)C(=O)O; hPhe = N[C@@H](CCc1ccccc1)C(=O)O; Cha = N[C@@H](CC1CCCCC1)C(=O)O; aThr = C[C@H](O)[C@H](N)C(=O)O; Suc = O=C(CCC(=O)[*:2])[*:1]; Carboxymethyl = O=C(O)C*; NMeA = CN[C@@H](C)C(=O)O; Orn = NCCC[C@H](N)C(=O)O; Dab = NCC[C@H](N)C(=O)O; Dap = NC[C@H](N)C(=O)O; X48 = CN(C)S(=O)(=O)O*

Target: T1, Alexa fluor-647 labeled human PD-L1-Ig binding to Jurkat cell line over-expressing human PD-1 (Homo sapiens, UniProt Q15116)
T1 construct: expressed in transfected cells; host or cells: Jurkat
T1 sequence (Q15116 25-288): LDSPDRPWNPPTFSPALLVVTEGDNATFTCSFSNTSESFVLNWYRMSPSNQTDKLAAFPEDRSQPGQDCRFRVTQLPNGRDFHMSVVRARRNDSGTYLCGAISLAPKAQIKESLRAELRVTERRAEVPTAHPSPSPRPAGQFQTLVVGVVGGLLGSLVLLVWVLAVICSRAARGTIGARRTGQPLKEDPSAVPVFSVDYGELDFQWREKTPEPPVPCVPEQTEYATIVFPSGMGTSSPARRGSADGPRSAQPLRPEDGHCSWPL
Assay: Jurkat-PD-1 Cell Binding High-Content Screening Assay (CBA): Method 3 (Alexa fluor-647 labeled PD-L1-Ig)
Settings: Jurkat-PD-1 cells, Alexa fluor-647 labeled PD-L1-Ig 177 nM; head μM; read-out: CBA Method 3 μM
How it was run: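 Jurkat cells over-expressing human PD-1 in RPMI/10% FCS were preincubated 2 h at 37 °C with compound, then exposed 1 h to Alexa fluor-647 labeled human PD-L1-Ig (177 nM final). Cells fixed in 4% paraformaldehyde with Hoechst 33342 and binding quantified by high-content imaging.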

First: CC(C)C[C@H]1NC(=O)[C@H](C)N(C)C(=O)[C@H](CCC(N)=O)NC(=O)[C@H](Cc2ccc(-c3ccccc3)cc2)NC(=O)[C@H](CCc2ccccc2)NC(=O)[C@H](Cc2cccc(C(F)(F)F)c2)NC(=O)[C@H](CC(=O)N[C@@H](CC(=O)O)C(=O)O)NC(=O)[C@H](Cc2ccc(OCC(=O)O)cc2)NC(=O)[C@H](CN2CCOCC2)NC(=O)CSC[C@@H](C(=O)N[C@@H](CCN)C(N)=O)NC(=O)[C@H](CCCN)NC(=O)[C@H](C(C)C)NC(=O)[C@H](CC2CCCCC2)NC(=O)[C@H](CCN)NC1=O [Example 5294] ({CH2CO}-[Ala(morpholin-4-yl)]Y(Carboxymethyl)D(Asp)[Phe(3-CF3)][hPhe][Bip]Q[NMeA][dL][Dab][Cha]V[Orn]C[Dab]-NH2; thioether N-14)
Second: CC(C)C[C@H]1NC(=O)[C@H](C)N(C)C(=O)[C@H](Cc2ccc(C(=O)O)cc2)NC(=O)[C@H](Cc2ccc(-c3ccccc3)cc2)NC(=O)[C@H](CCc2ccccc2)NC(=O)[C@H](Cc2cccc(C(F)(F)F)c2)NC(=O)[C@H](CC(=O)O)NC(=O)[C@H](Cc2ccc(C(=O)O)cc2)NC(=O)[C@H](CN2CCOCC2)NC(=O)CSC[C@@H](C(=O)N[C@@H](CCN)C(N)=O)NC(=O)[C@H](CNC(=O)CC(F)(F)F)NC(=O)[C@H](C(C)C)NC(=O)[C@H](CC2CCCCC2)NC(=O)[C@H](CCN)NC1=O [Example 5232] ({CH2CO}-[Ala(morpholin-4-yl)][Phe(4-COOH)]D[Phe(3-CF3)][hPhe][Bip][Phe(4-COOH)][NMeA][dL][Dab][Cha]V[Dap](Propanoyl(3,3,3-F3))C[Dab]-NH2; thioether N-14)
The IC50 of the first is 2.5-fold lower: 0.04 µM for the first, 0.1 µM for the second. The first is the more potent here.

`Cc1cccc(C[C@@H]2NC(=O)[C@H](CC(=O)O)NC(=O)[C@H](Cc3ccc(OCC(=O)O)cc3)NC(=O)[C@H](Cc3ccc(F)c(F)c3)NC(=O)CSC[C@@H](C(=O)N[C@@H](CCN)C(N)=O)NC(=O)[C@H](CCCN)NC(=O)[C@H](C(C)C)NC(=O)[C@H](CC3CCCCC3)NC(=O)[C@H](CCN)NC(=O)[C@@H](CC(C)C)NC(=O)[C@H](C)N(C)C(=O)[C@H](CCC(N)=O)NC(=O)[C@H](Cc3ccc(-c4ccccc4)cc3)NC(=O)[C@H](Cc3ccc(C(=O)O)cc3)NC2=O)c1` [Example 5285] ({CH2CO}-[Phe(3,4-F2)]Y(Carboxymethyl)D[Phe(3-Me)][Phe(4-COOH)][Bip]Q[NMeA][dL][Dab][Cha]V[Orn]C[Dab]-NH2; thioether N-14) and `Cc1cccc(C[C@@H]2NC(=O)[C@H](CC(=O)O)NC(=O)[C@H](Cc3ccc(OCC(=O)O)cc3)NC(=O)[C@H](Cc3cc(F)c(F)c(F)c3)NC(=O)CSC[C@@H](C(=O)N[C@@H](CCN)C(N)=O)NC(=O)[C@H](CCCN)NC(=O)[C@H](C(C)C)NC(=O)[C@H](CC3CCCCC3)NC(=O)[C@H](CCN)NC(=O)[C@@H](CC(C)C)NC(=O)[C@H](C)N(C)C(=O)[C@H](CCC(N)=O)NC(=O)[C@H](Cc3ccc(-c4ccccc4)cc3)NC(=O)[C@H](Cc3ccc(C(=O)O)cc3)NC2=O)c1` [Example 5287] ({CH2CO}-[Phe(3,4,5-F3)]Y(Carboxymethyl)D[Phe(3-Me)][Phe(4-COOH)][Bip]Q[NMeA][dL][Dab][Cha]V[Orn]C[Dab]-NH2; thioether N-14) are within 1.5-fold of each other in IC50: 0.3 µM for the first, 0.27 µM for the second.

Compared with `CC(C)[C@@H]1NC(=O)[C@H](Cc2c[nH]c3ccccc23)NC(=O)[C@H](CC(=O)O)NC(=O)[C@H](Cc2ccc(O)cc2)NC(=O)[C@H](CC2CCCCC2)NC(=O)CSC[C@@H](C(=O)N[C@@H](CCN)C(N)=O)NC(=O)[C@H]([C@H](C)O)NC(=O)[C@H](C(C)(C)O)NC(=O)[C@H](CC2CCCCC2)NC(=O)[C@H](CCC(=O)O)NC(=O)[C@@H](C)NC(=O)[C@H](C)N(C)C(=O)[C@H](C(C)C)NC(=O)[C@H](Cc2ccc(-c3ccccc3)cc2)NC1=O` [Example 5150] ({CH2CO}-[Cha]YDWV[Bip]V[NMeA][dA]E[Cha][Val(3-OH)][aThr]C[Dab]-NH2; thioether N-14), `Cc1cccc(C[C@@H]2NC(=O)[C@H](CC(=O)O)NC(=O)[C@H](Cc3ccc(OCC(=O)O)cc3)NC(=O)[C@H](Cc3ccc(CNC(=N)N)cc3)NC(=O)CSC[C@@H](C(=O)N[C@@H](CCN)C(N)=O)NC(=O)[C@H](CCCN)NC(=O)[C@H](C(C)C)NC(=O)[C@H](CC3CCCCC3)NC(=O)[C@H](CCN)NC(=O)[C@@H](CC(C)C)NC(=O)[C@H](C)N(C)C(=O)[C@H](CCC(N)=O)NC(=O)[C@H](Cc3ccc(-c4ccccc4)cc3)NC(=O)[C@H](Cc3ccc(C(=O)O)cc3)NC2=O)c1` [Example 5278] ({CH2CO}-[X32]Y(Carboxymethyl)D[Phe(3-Me)][Phe(4-COOH)][Bip]Q[NMeA][dL][Dab][Cha]V[Orn]C[Dab]-NH2; thioether N-14) is 5.2-fold higher in IC50: 0.06 µM for the first, 0.31 µM for the second. The first is the more potent here.

Going from `CC(C)C[C@H]1NC(=O)[C@H](C)N(C)C(=O)[C@H](Cc2ccc(C(=O)O)cc2)NC(=O)[C@H](Cc2ccc(-c3ccccc3)cc2)NC(=O)[C@H](Cc2ccc(C(=O)O)cc2)NC(=O)[C@H](Cc2cccc(C(F)(F)F)c2)NC(=O)[C@H](CC(=O)N[C@@H](CC(=O)O)C(=O)O)NC(=O)[C@H](Cc2ccc(C(=O)O)cc2)NC(=O)[C@H]([C@H](C)N)NC(=O)CSC[C@@H](C(=O)N[C@@H](CCN)C(N)=O)NC(=O)[C@H](CC(N)=O)NC(=O)[C@H](C(C)C)NC(=O)[C@H](CC2CCCCC2)NC(=O)[C@H](CCN)NC1=O` [Example 5102] ({CH2CO}-[Abu(3S-NH2)][Phe(4-COOH)]D(Asp)[Phe(3-CF3)][Phe(4-COOH)][Bip][Phe(4-COOH)][NMeA][dL][Dab][Cha]VNC[Dab]-NH2; thioether N-14) to `CC(C)C[C@H]1NC(=O)[C@H](C)N(C)C(=O)[C@H](Cc2ccc(C(N)=O)cc2)NC(=O)[C@H](Cc2ccc(-c3ccccc3)cc2)NC(=O)[C@H](Cc2ccc(C(=O)O)cc2)NC(=O)[C@H](Cc2cccc(C(F)(F)F)c2)NC(=O)[C@H](CC(=O)OS(=O)(=O)N(C)C)NC(=O)[C@H](Cc2ccc(C(=O)O)cc2)NC(=O)[C@H]([C@H](C)N)NC(=O)CSC[C@@H](C(=O)N[C@@H](CCN)C(N)=O)NC(=O)[C@H](CC(N)=O)NC(=O)[C@H](C(C)C)NC(=O)[C@H](CC2CCCCC2)NC(=O)[C@H](CCN)NC1=O` [Example 5113] ({CH2CO}-[Abu(3S-NH2)][Phe(4-COOH)]D(X48)[Phe(3-CF3)][Phe(4-COOH)][Bip][Phe(4-CONH2)][NMeA][dL][Dab][Cha]VNC[Dab]-NH2; thioether N-14), the IC50 falls from 0.51 µM to 0.15 µM (3.4-fold). The second is the more potent here.

In the case of `CC(=O)Nc1ccc(-c2ccc(C[C@@H]3NC(=O)[C@H](Cc4cccc(C)c4)NC(=O)[C@H](CC(=O)O)NC(=O)[C@H](Cc4ccc(-c5ccc(C(=O)O)cc5)cc4)NC(=O)[C@H](CN4CCOCC4)NC(=O)CSC[C@@H](C(=O)N[C@@H](CCN)C(N)=O)NC(=O)[C@H](Cc4cnc[nH]4)NC(=O)[C@H](C(C)(C)O)NC(=O)[C@H](CC4CCCCC4)NC(=O)[C@H](CCN)NC(=O)[C@@H](CC(C)C)NC(=O)[C@H](C)N(C)C(=O)[C@H](Cc4ccc(OCC(=O)O)cc4)NC(=O)[C@H](Cc4ccc(-c5ccccc5)cc4)NC3=O)cc2)cc1` [Example 5134] ({CH2CO}-[Ala(morpholin-4-yl)][Bip(4'-COOH)]D[Phe(3-Me)][Bip(4'-NHAc)][Bip]Y(Carboxymethyl)[NMeA][dL][Dab][Cha][Val(3-OH)]HC[Dab]-NH2; thioether N-14), the IC50 is reported as 0.03 µM.

Same assay, conditions: Jurkat-PD-1 cells, Alexa fluor-647 labeled PD-L1-Ig 177 nM; nM; read-out: CBA Method 3

Compared with `Cc1cccc(C[C@@H]2NC(=O)[C@H](CC(=O)O)NC(=O)[C@H](Cc3ccc(-c4ccc(C(=O)O)cc4)cc3)NC(=O)[C@H](CN3CCOCC3)NC(=O)CSC[C@@H](C(=O)N[C@@H](CCN)C(N)=O)NC(=O)[C@H](CCC(=O)O)NC(=O)[C@H](C(C)(C)O)NC(=O)[C@H](CC(C)C)NC(=O)[C@H](CC(N)=O)NC(=O)[C@@H](CC(C)C)NC(=O)[C@H](C)N(C)C(=O)[C@H](C(C)C)NC(=O)[C@H](Cc3ccc(-c4ccccc4)cc3)NC(=O)[C@H](CC(C)C)NC2=O)c1` [Example 5126] ({CH2CO}-[Ala(morpholin-4-yl)][Bip(4'-COOH)]D[Phe(3-Me)]L[Bip]V[NMeA][dL]NL[Val(3-OH)]EC[Dab]-NH2; thioether N-14), `CC(C)C[C@H]1NC(=O)[C@H](C)N(C)C(=O)[C@H](Cc2ccc(C(=O)O)cc2)NC(=O)[C@H](Cc2ccc(-c3ccccc3)cc2)NC(=O)[C@H](Cc2ccc(C(=O)O)cc2)NC(=O)[C@H](Cc2cccc(C(F)(F)F)c2)NC(=O)[C@H](CC(=O)O)NC(=O)[C@H](Cc2ccc(C(=O)O)cc2)NC(=O)[C@H](CN2CCOCC2)NC(=O)CSC[C@@H](C(=O)N[C@@H](CCN)C(N)=O)NC(=O)[C@H](CNC(=O)CCC(=O)O)NC(=O)[C@H](C(C)C)NC(=O)[C@H](CC2CCCCC2)NC(=O)[C@H](CCN)NC1=O` [Example 5144] ({CH2CO}-[Ala(morpholin-4-yl)][Phe(4-COOH)]D[Phe(3-CF3)][Phe(4-COOH)][Bip][Phe(4-COOH)][NMeA][dL][Dab][Cha]V[Dap](Suc)C[Dab]-NH2; thioether N-14) is 3-fold higher in IC50: 0.0032 µM for the first, 0.0097 µM for the second. The first is the more potent here.

`CC(C)C[C@H]1NC(=O)[C@H](C)N(C)C(=O)[C@H](Cc2ccc(C(=O)O)cc2)NC(=O)[C@H](Cc2ccc(-c3ccccc3)cc2)NC(=O)[C@H](Cc2ccc(C(=O)O)cc2)NC(=O)[C@H](Cc2cccc(C(F)(F)F)c2)NC(=O)[C@H](CC(=O)O)NC(=O)[C@H](Cc2ccc(C(=O)O)cc2)NC(=O)[C@H](CC2CCCCC2)NC(=O)CSC[C@@H](C(=O)N[C@@H](CCN)C(N)=O)NC(=O)[C@H](CCC(=O)O)NC(=O)[C@H](C(C)C)NC(=O)[C@H](CC2CCCCC2)NC(=O)[C@H](CCN)NC1=O` [Example 5195] ({CH2CO}-[Cha][Phe(4-COOH)]D[Phe(3-CF3)][Phe(4-COOH)][Bip][Phe(4-COOH)][NMeA][dL][Dab][Cha]VEC[Dab]-NH2; thioether N-14) gave an IC50 of 0.0017 µM.
